Values of other authors, collected in patent US20240000694A1, “Methods and Materials for Matching Chemistry of Individuals and Human Melanin” (Northwestern University, priority 2022, published 2024).

**Q.** Which “pKa of —COOH” value does the source give for N[C@@H](CSSC[C@H](N)C(=O)O)C(=O)O [cystine] here?
**A.** The value was 1.91.
